Reference: patent US4004008A, “O-Tertiary amino-alkyl-N-benzoyl tyrosil amides” (priority 1974, dated 1977)

Experiments:
rat = test: Acute toxicity (DL50) i.v. in rat; type: in vivo; settings: dose causing death in 50% of the animals
Procedure: (§1) In this table (n. 1) there are recorded the compounds described in the examples with their relative serial numbers, the acute toxicity, the antispastic activity observed in two experimental tests, one "in vivo" and one "in vitro". There are moreover recorded two therapeutic indices which take account of the toxicity of these compounds in relation to their in vivo and in vitro activity. More precisely:
(§2) A. DL50 which, as is known, is the quantity of the substance expressed in mg/kg of animal weight, capable of causing death in 50% of the animals treated.

[1] = test system: ileum of a cavy (BaCl2 spasm); test: Antispastic activity in vitro, Magnus method, cavy ileum stimulated with BaCl2; type: cell-based; settings: ratio to papaverine = 1; Table 1; 37°
Procedure: C. The method in vitro is that of Magnus, with the ileum of the cavy, and is in common use for all evaluations. It consists of extracting the ileum from the cavy and placing it in a receptacle which contains nutritive liquid, suitably oxygenated, and registering the movements of the organ which remains alive for several hours if maintained at a temperature of 37°. According to the traditional method followed by us, BaCl2 is put into the bath as a spasmisant: the reaction is a violent contraction of the organ. This contraction can be prevented by adding beforehand pharmaceuticals which inhibit spasms, and in this case our compounds.
The values recorded are expressed as relation between papaverine and the ED50 of our compounds. (As is known, the ED50 is the dose which results in a 50% reduction in spastic contraction).
E. I.T.2 is the therapeutic index under the profile of the antispastic activity in vitro and is given by the product between the in vitro antispastic activity index (column 4) and the corresponding DL50 (column 2).

[2] = test system: intestinal transit of the charcoal; test: Vegetable carbon (charcoal) intestinal transit test in vivo; parameters: species or system rat; settings: i.v., rat, charcoal test, 2 hours; for ED50: Rattus norvegicus, iv, 2 h, read-out: Antisp. activity in transit test: ED50
Procedure: B. The vegetable carbon method in vivo (charcoal method) which consists of administering by oral means to rats, which have fasted for 24 hours, 0.3ml/per rate of a mixture consisting of: 10g of charcoal and 5 g of gum arabic suspended in a volume of 100 cc of H2 O as well as at the same time the substance being studied, accordingly as desired, generally i.v., s.c., oral. After two hours the animals are killed and those are taken to be negative in which the charcoal has reached the first portion of the colon and the others positive, in the sense that the substance administered has slowed down the intestinal transit of the charcoal.
In effect the animals treated with a physiological solution (checks) are all negative after two hours.
D. I.T.1 is the therapeutic index under the profile of the antispastic activity in vivo, and it is obtained by recording the DL50 (column 2) with the ED50 of the charcoal test (column 3).

[3] = Acute toxicity (DL50) i.v. in rat; type: in vivo; settings: in vivo, iv, dose causing death in 50% of the animals
Procedure: as §1, §2

Row | Compound | DL50 in a rat (rat) [mg/kg] | Antisp. activity in vitro on the ileum of a cavy by Stim. BaCl2: ED50 pap./ED50 CR [1] | Antisp. activity in transit test: ED50 ([2]; 120 min) [mg/kg] | Antisp. activity in transit test: ED50 [2] | LD50 [3] [mg/kg] | ED50 [2] [mg/kg]
1 | CCCN(CCC)C(=O)C(Cc1ccc(OCCCN(C)C)cc1)NC(=O)c1ccccc1 (racemic) [CR 607, O-(3-dimethylamino-propyl)-N-benzoyl-DL-tyrosil-di-n-propylamide] | 32.4 | 0.41 | 26.7 |  |  | 
2 | CCCN(CCC)C(=O)C(Cc1ccc(OCCN(C)C)cc1)NC(=O)c1ccc(C)cc1 (racemic) [CR 615, O-(2-dimethylamino-ethyl)-N-toluoyl-DL-tyrosil-di-n-propylamide] | 48.1 | 0.69 |  | inactive |  | 
3 | CCCN(CCC)C(=O)C(Cc1ccc(OCCN2CCCC2)cc1)NC(=O)c1ccc(C)cc1 (racemic) [CR 650, O-(2-pyrrolidil-N'-ethyl)-N-toluoyl-DL-tyrosil-di-n-propylamide] | 17.5 | 1.17 |  | 18.4 mg/kg |  | 
4 | CCCCN(CCCC)C(=O)C(Cc1ccc(OCCCN2CCN(C)CC2)cc1)NC(=O)c1ccccc1Cl (racemic) [CR 731, O-[3-(N"-methyl-piperazine)-N'-propyl]-N-(o-chloro-benzoyl)-DL-tyrosil-di-n-butylamide] | 61 | 1.75 |  | 39.4 mg/kg |  | 
5 | CCN(CC)CCOc1ccc(CC(NC(=O)c2ccccc2)C(=O)N(CC)CC)cc1 (racemic) [CR 734, O-(2-diethylamino-ethyl)-N-benzoyl-DL-tyrosil-di-ethylamide] |  | 0.52 |  |  | 62.2 | 33.4
6 | CCN(CC)C(=O)C(Cc1ccc(OCCN2CCN(C)CC2)cc1)NC(=O)c1ccccc1 (racemic) [CR 736, O-[2-(N"-methyl-piperazine)-N'-ethyl]-N-benzoyl-DL-tyrosildiethylamide] |  | 0.04 |  |  | 102 | 39.6
7 | CCN(CC)CCOc1ccc(CC(NC(=O)c2ccccc2)C(=O)N(C)C)cc1 (racemic) [CR 738, O-(2-diethylamino-ethyl)-N-benzoyl-DL-tyrosil-di-methylamide] |  | 0.14 |  |  | 85.3 | 50.6
8 | CCN(CC)CCOc1ccc(CC(NC(=O)c2ccccc2)C(N)=O)cc1 (racemic) [CR 740, O-(2-dietylamino-ethyl)-N-benzoyl-DL-tyrosil-amide] |  | 0.36 |  | inactive | 102 | 
9 | CCCCNC(=O)C(Cc1ccc(OCCN(CC)CC)cc1)NC(=O)c1ccccc1 (racemic) [CR 786, O-(2-diethylamine-ethyl)-N-benzoyl-DL-tyrosil-n-butylamide] |  | 0.17 |  |  | 38 | 34.3
10 | CCCN(CCC)C(=O)C(Cc1ccc(OCCN(CC)CC)cc1)NC(=O)c1ccc(C)cc1 (racemic) [CR 807, O-(2-diethylamino-ethyl)-N-toluoyl-DL-tyrosil-di-n-propylamide] | 31.5 | 0.34 |  | 21 mg/kg |  | 
11 | CCCCNC(=O)C(Cc1ccc(OCCN2CCCC2)cc1)NC(=O)c1ccc(Cl)cc1 (racemic) [CR 812, O-(2'-pyrrolidil-N'-ethyl)-N-(p-chloro-benzoyl)-DL-tyrosil-n-butylamide] |  | 1.03 |  |  | 27 | 21
12 | CCCNC(=O)C(Cc1ccc(OCCN2CCCC2)cc1)NC(=O)c1ccccc1 (racemic) [CR 821, O-(2-pyrrolidil-N'-ethyl)-N-benzoyl-DL-tyrosil-n-propylamide] |  | 0.13 |  |  | 53 | 15.6
13 | CCCN(CCC)CCOc1ccc(CC(NC(=O)c2ccccc2)C(=O)N(CCC)CCC)cc1 (racemic) [CR 823, O-(2-di-n-propylamino-ethyl)-N-benzoyl-DL-tyrosil-di-n-propylamide] |  | 1.48 |  |  | 23 | 16.2
14 | CCCCCCNC(=O)C(Cc1ccc(OCCN2CCCC2)cc1)NC(=O)c1ccccc1 (racemic) [CR 825, O-(2-pyrrolidil-N'-ethyl)-N-benzoyl-DL-tyrosil-n-hexylamide] |  | 1.8 |  |  | 42 | 14.8
15 | CCCCCCNC(=O)C(Cc1ccc(OCCN2CCCC2)cc1)NC(=O)c1ccc(C)cc1 (racemic) [CR 826, 0-(2-pyrrolidil-N'-ethyl)-N-toluoyl-DL-tyrosil-n-hexylamide] | 41 | 1.2 |  | 17.0 mg/kg |  | 
16 | CCCN(CCC)C(=O)C(Cc1ccc(OCCN(CC)CC)cc1)NC(=O)OCc1ccccc1 (racemic) [CR 832, O-(2-diethylamino-ethyl)-N-carbobenzoxy-DL-tyrosil-di-n-propylamide] |  | 1.40 |  |  | 32.4 | 16.3
17 | CN(C)CCOc1ccc(C[C@H](NC(=O)OCc2ccccc2)C(=O)N2CCOCC2)cc1 [CR 606, O-(2-dimethylamino-ethyl)-N-carbobenzoxy-L-tyrosil-morpholylamide] |  | 0.19 |  | inactive | 128 | 
18 | CCNC(=O)C(Cc1ccc(OCCN(C)C)cc1)NC(=O)OCc1ccccc1 [CR 610, O-(2-dimethylamino-ethyl)-N-carbobenzoxy-L-tyrosil-ethylamide] |  | 0.13 |  |  | 139 | 58.1
19 | CN(C)CCOc1ccc(C[C@H](NC(=O)OCc2ccccc2)C(=O)NCc2ccccc2)cc1 [CR 612, O-(2-dimethylamino-ethyl)-N-carbobenzoxy-L-tyrosil-benzylamide] |  | 0.35 |  |  | 87.7 | 23
20 | CCCN(CCC)C(=O)C(Cc1ccc(OCCN(C)C)cc1)NC(=O)OCc1ccc([N+](=O)[O-])cc1 (centres unmarked) [CR 613] |  | 0.68 |  |  | 100 | 58.7
21 | CCCN(CCC)C(=O)C(Cc1ccc(OCCN(CC)CC)cc1)NC(=O)OCc1ccccc1 [CR 627, O-(2-diethylamino-ethyl)-N-carbobenzoxy-D-tyrosil-di-n-propylamide] | 34.0 | 1.44 | 20.8 |  |  | 
22 | CCCN(CCC)C(=O)C(Cc1ccc(OCCN(CC)CC)cc1)NC(=O)c1ccccc1 [CR 804, O-(2-diethylamino-ethyl)-N-benzoyl-L-tyrosil-di-n-propylamide] |  | 0.89 |  |  | 33.5 | 16.1
23 | CCCN(CCC)C(=O)C(Cc1ccc(OCCN(CC)CC)cc1)NC(=O)OCc1ccccc1 [CR 830, O-(2-diethylamino-ethyl)-N-carbobenzoxy-L-tyrosil-di-n-propylamide] |  | 1.49 |  |  | 31.5 | 17.3
24 | CCCN(CCC)C(=O)C(Cc1ccc(OCCN(CC)CC)cc1)NC(=O)c1ccc(Cl)cc1 [CR 831, O-(2-diethylamino-ethyl)-N-(p-chloro-benzoyl)-L-tyrosil-din-propylamide] |  | 1.30 |  |  | 35 | 24.4
25 | O-(2-diisopropylamino-ethyl)-N-toluoyl-DL-tyrosil-n-butylamide [CR 709] | 40 |  |  | 36.1 mg/kg |  | 
26 | O-(3-pyrrolidil-N'-propyl)-N-toluoyl-DL-tyrosil-n-butylamide [CR 797] | 20.6 | 1.32 |  | 12.0 mg/kg |  | 
